Reference: US10993939B2, “Compositions for treating or preventing vasomotor symptoms” (Mitsubishi Tanabe Pharma Corporation, priority 2016, dated 2021)

Assays:
naive SD rats = test: Evaluation of TRPM8 antagonist on core body (rectal) temperature in rats; type: in vivo
Experimental: Methods: Compound A (0.3 and 3 mg/kg) or vehicle was orally administered to naive SD rats (n=6). Rectal temperature was measured before, 1, 2, 3 and 6 hours after administration. AUC for 0 to 6 hours was calculated and statistically analyzed.

[1] = tested on: female subjects experiencing Vasomotor Symptoms (VMS); test: Phase Ib study: frequency of vasomotor symptoms (VMS); type: in vivo, human; design: key to Mean observed value in VMS frequency (moderate and severe VMS): moderate + severe VMS events per day
Text: (§1) Study Design: This was a Phase Ib, randomized, double blind, placebo controlled study. The study design is illustrated in FIG. 2. Following the initial Screening visit, eligible subjects was given an actigraphy event monitor (watch) to record episodes of flashing as Vasomotor symptoms (VMS) events during a period of 2 weeks during Screening, in order to confirm VMS eligibility criteria (>7 VMS/day on average during 2 weeks). Subjects may be required to return to the site during the Screening period to read or exchange the actigraphy event monitor. Subjects deemed eligible following review of VMS data were invited to attend the Clinical research unit (CRU) for one residential period of 16 days duration, including 14 days of Investigational Medicinal Product (IMP) administration. Subjects were admitted to the CRU 1 day prior to dosing (Day −1). No medication was administered on Day −1. On Day 1, subjects who meet the study eligibility criteria were randomized to receive one dose level of either Compound A (6 subjects) or a matching placebo (2 subjects) in a double-blind manner. Randomized treatment was administered once nightly, starting on Day 1, for a total duration of 14 days.
Fifty (50) mg of Compound A was administered to the female subjects experiencing Vasomotor Symptoms (VMS), and as the above-mentioned assessments, a Frequency of VMS and a Core body temperature assessment were examined.
Here a moderate VMS and a severe VMS were counted as a VMS frequency.

[2] = tested on: female subjects experiencing Vasomotor Symptoms (VMS); test: Phase Ib study: core body temperature assessment; type: in vivo, human; settings: 50 mg; within 24 hours post-dose on Visit Day 1, 7, 10 or 14, FIG. 4
Text: as §1, with “days. […]” for “days.”

`O=C(O)c1ccc(S(=O)(=O)N(Cc2ccc(OC(F)(F)F)cc2)c2ncc3ccccc3c2C2CC2)cc1` [Compound A, 4-({(4-cyclopropylisoquinolin-3-yl)[4-(trifluoromethoxy)benzyl]amino}sulfonyl)benzoic acid] was tested, and the “Maximum decrease in rectal temperature (amplitude)” value (naive SD rats; 3 mg/kg orally, at 2 hours after administration, SD rats) was 0.82 °C, the “Rectal temperature compared to vehicle (AUC for 0 to 6 hours)” value (naive SD rats; 0.3 and 3 mg/kg orally, naive SD rats, P<0.01 vs vehicle, FIG. 1) was “significantly reduced rectal temperature” and the “Effect on frequency of VMS versus placebo” value ([1]; 50 mg once nightly, 14 days, FIG. 3) was “reduced the frequency of VMS significantly”. For the same compound, the “Onset of the reduction effect of VMS frequency” value ([1]; 50 mg once nightly, FIG. 3) was “the reduction effect of VMS frequency was shown at Day 2 or later”, the “Mean observed value in VMS frequency (moderate and severe VMS)” value (from here on “Mean observed value in VMS frequency”) ([1]; Baseline (before dosing), 50 mg group) was 11.2 and the “Mean observed value in VMS frequency” value ([1]; Day 1, 50 mg once nightly) was 11.7. The “Mean observed value in VMS frequency” value ([1]; Day 2, 50 mg once nightly) was 6.0, the “Mean observed value in VMS frequency” value ([1]; Day 3, 50 mg once nightly) was 4.7 and the “Mean observed value in VMS frequency” value ([1]; Day 4, 50 mg once nightly) was 4.7. For the same compound, the “Mean observed value in VMS frequency” value ([1]; Day 5, 50 mg once nightly) was 2.7, the “Mean observed value in VMS frequency” value ([1]; Day 6, 50 mg once nightly) was 2.8 and the “Mean observed value in VMS frequency” value ([1]; Day 7, 50 mg once nightly) was 3.0. For the same compound, the “Mean observed value in VMS frequency” value ([1]; Day 8, 50 mg once nightly) was 3.3, the “Mean observed value in VMS frequency” value ([1]; Day 9, 50 mg once nightly) was 1.3 and the “Mean observed value in VMS frequency” value ([1]; Day 10, 50 mg once nightly) was 3.2. The “Mean observed value in VMS frequency” value ([1]; Day 11, 50 mg once nightly) was 2.8, the “Mean observed value in VMS frequency” value ([1]; Day 12, 50 mg once nightly) was 2.7 and the “Mean observed value in VMS frequency” value ([1]; Day 13, 50 mg once nightly) was 2.3. The “Mean observed value in VMS frequency” value ([1]; Day 14, 50 mg once nightly) was 2.3 and the “Change from baseline in core body temperature” value [2] was “reduced the core body temperature significantly”.
